According to US20110097332A1, “Composition and Method of Use for HCV Immunization” (priority 2007, published 2011):
“Also recorded” adds a separate entry of the source. Read-outs that look alike come from different tables or passages of the source. Primed or numbered codes have the meaning given here. FITC′ = not defined here

Legend:
[1] = tested on: HCV-infected primary human hepatocytes; assay: cell toxicity (LDH in medium) of HCV-infected primary human hepatocytes; format: cell-based
Procedure: Toxicity of HCV E2 mutants to human hepatocyte cultures was determined by measuring lactic dehydrogenase (LDH) (Sigma) and alanine aminotransferase (ALT) (Weiner Laboratories) in the medium. Positive (Jo2 Ab) and negative (untreated cells) control samples were determined in parallel. LDH assays of culture media were measurements of cellular leakage that indicates cell injury. ALT was enriched in hepatocytes and it's presence in serum or cell culture media was a classic indicator of hepatocyte injury. Indeed, it is the FDA's gold standard for hepatocellular toxicity.

[2] = tested on: HCV genotypes 1, 3, and 4; assay: HCV infection/replication in primary human hepatocytes, HCV RNA by RT-PCR; format: cell-based
Text: (§1) Hepatocytes were obtained (from Tissue Transformation Technologies [Edison, N.J.]) from anonymous organ donors without liver disease that were not suitable for liver transplantation for technical but not medical reasons. These donors are negative For Hepatitis A, B and C, CMV, HIV, HTLV ½, and RPR-STS. Hepatocytes cultures with >5% apoptosis by annexin-V assays and/or increases >3-fold in ALT were discarded.
Hepatocytes were isolated from an encapsulated liver sample by a modified two-step perfusion technique introduced by Seglen (63). Briefly, the dissected lobe was placed into a custom-made perfusion apparatus and two to five hepatic vessels were cannulated with tubing attached to a multi-channel manifold. A liver fragment (150 to 500 g) was perfused initially (recirculation technique) with calcium-free HBSS supplemented with 0.5 mM EGTA for 20 to 30 min and then with 0.05% collagenase [Sigma] dissolved in L-15 medium (with calcium) at 37° C. until the tissue was fully digested. The digested liver was removed, immediately cooled with ice-cold L-15 medium and the cell suspension was strained through serial progressively smaller stainless steel sieves, with a final filtration through 100-micron and 60-micron nylon mesh. The filtered cell suspension was aliquoted into 250-ml tubes and centrifuged three times at 40 g for 3 min at 4° C. […]

[3] = tested on: HCV-infected primary human hepatocytes; assay: cell permeability and co-localization with E2 in HCV-infected primary human hepatocytes (immuno-staining, FITC tag); format: cell-based
Text: as §1
Hepatocytes were isolated from an encapsulated liver sample by a modified two-step perfusion technique introduced by Seglen (63). Briefly, the dissected lobe was placed into a custom-made perfusion apparatus and two to five hepatic vessels were cannulated with tubing attached to a multi-channel manifold. A liver fragment (150 to 500 g) was perfused initially (recirculation technique) with calcium-free HBSS supplemented with 0.5 mM EGTA for 20 to 30 min and then with 0.05% collagenase [Sigma] dissolved in L-15 medium (with calcium) at 37° C. until the tissue was fully digested. The digested liver was removed, immediately cooled with ice-cold L-15 medium and the cell suspension was strained through serial progressively smaller stainless steel sieves, with a final filtration through 100-micron and 60-micron nylon mesh. The filtered cell suspension was aliquoted into 250-ml tubes and centrifuged three times at 40 g for 3 min at 4° C. After the last centrifugation, the cells were re-suspended, in HypoThermosol-FRS [BioLife Solutions, Inc] combined in one tube and placed on ice.
Cells were centrifuged at 700 rpm for 5 min at 4° C., the supernatant was removed and the cells were washed with Hanks Wash Solution ([…] KCl 0.4 g/l; 4.4 mM KH2PO 0.06 g/l; […] NaCl 8 g/l; 3.4 mM Na2HPO4 0.048 g/l; 20 μL CaCl2 (2M)) three times. […]
Fluorescent labels were observed using a triple-channel fluorescence microscope or a laser scanning confocal microscope. […] At least 100 cells were analyzed per experimental point (9). The nuclear morphology was analyzed by staining cells with TOPRO-3 (R&D Systems).

[4] = tested on: HCV E2; assay: in vitro phosphorylation assay of AP50 by recombinant E2 (cell-free, 32P ATP); format: biochemical; settings: peptide added to the phosphorylation assay
Procedure: AP50 was immunopurified from untransfected primary hepatocytes and subjected to heat inactivation of any associated kinases. Recombinant wild type or mutated E2 were combined with AP50 in the presence of ^32P ATP (MP Biomedicals cat. #35020) and kinase buffer (50 mM Tris-HCL, pH 7.5, 5 mM MgCl2). The reaction was incubated at room temperature for 1 hour, and run on an SDSPAGE, transferred to a membrane and exposed to film overnight, as described previously (8; 57; 63).

[5] = tested on: E2; assay: binding of the mutant AP50 peptide to E2; design: species or system HCV
[6] = target: HCV E2 Y228F mutant (hepatitis C virus (HCV), UniProt P26664 384-746, Y228F); assay: co-immunopurification with anti-cyclin G antibodies, primary mouse hepatocytes
[7] = target: HCV E2 Y228E mutant (hepatitis C virus (HCV), UniProt P26664 384-746, Y228E); assay: as above
[8] = primary hepatocyte infection system
[9] = listed as dominant negative peptide of the AP50 phospho-acceptor

**Q.** What does the source list for “NH2-QGEVQRRRQRRKKRGYGGGG-FITC (H-QGEVQRRRQRRKKRGYGGGG-{FITC′}) [AP50 peptide]”?
**A.** toxicity at termination of the experiment ([1]; 120 hours, in the presence of the peptide): comparable to that of uninfected cells; LDH levels (hepatocyte toxicity) ([1]; peptide added to the media at 72 hours post HCV infection): LDH levels began to decrease; hepatocyte toxicity induced by the peptide [1, 8]: without inducing hepatocyte toxicity; HCV replication (HCV RNA by RT-PCR) ([2]; peptide added at the time of HCV infection, genotypes 1, 3, and 4): inhibits HCV replication of genotypes 1, 3, and 4; HCV infection [2, 8]: inhibits HCV infection; cell permeability [3]: cell permeable; co-localization / association with HCV E2 [3]: co-localized with HCV E2; co-localization / association with HCV E2 [3, 9]: associates with E2; auto-phosphorylation of E2 [4]: unaffected; phosphorylation of AP50 by recombinant E2 (E2 kinase activity) [4, 9]: blocks the in vitro kinase activity of E2; phosphorylation of AP50 by recombinant E2 (E2 kinase activity) ([4]; listed as dominant negative peptide of the E2 consensus phosphorylation site): blocked; phosphorylation of AP50 by recombinant E2 (E2 kinase activity) ([4]; listed as mutant AP50 peptide): able to block the phosphorylation of AP50 by recombinant E2 in vitro; also recorded: blocks AP50 phosphorylation by E2; binding to E2 [5]: high affinity

B1: cyclin G, endogenous, in primary mouse hepatocytes (other)
chain: MIEVLTTDSQKLLHQLNTLLEQESRCQPKVCGLKLIESAHDNGLRMTARLRDFEVKDLLSLTQFFGFDTETFSLAVNLLDRFLSKMKVQAKHLGCVGLSCFYLAVKATEEERNVPLATDLIRISQYRFTVSDLMRMEKIVLEKVCWKVKATTAFQFLQLYYSLVHDTLPFERRNDLNFERLEAQLKACHCRIIFSKAKPSVLALSILALEIQALKYVELTEGVECIQKHSKISGRDLTFWQELVSKCLTEYSSNKCSKPNGQKLKWIVSGRTARQLKHSYYRITHLPTIPETIC
**Q.** Which results are given for B1?
**A.** binding result [6]: no binding; binding result [7]: no binding
